Data reported in patent publication EP4360643A1, “SOCS1 DERIVED PEPTIDES FOR USE IN THE TREATMENT OF LIVER DISEASES” (Fundacion Instituto De Investigacion Sanitaria Fundacion …, priority 2022, dated 2024).
Bridges are numbered along the chain shown (N, C = ends). Where no end group is shown, it is not given here. [ ]: non-standard residue; d: D form. The star is where a group is joined. 1Nal = N[C@@H](Cc1cccc2ccccc12)C(=O)O; Acm = CC(=O)NC*

Assays:
BKS db/db mice = test: T2D-induced liver damage in BKS db/db mice (leptin receptor deficiency); type: in vivo; settings: Losartan alone, 25 µg/g in drinking water, 7 weeks
Description: Leptin receptor deficiency in diabetes-susceptible strain BKS db/db: Homozygous C57BLKS (BKS) inbred db/db mice (16-weeks old males; Envigo) were randomized to receive in drinking water an angiotensin receptor blocker (Losartan 25 µg/g body weight) or vehicle as tap water (n=25). In addition, two groups of 8 losartan-treated mice were randomized to receive S1 peptide (10 µg/g body weight) or JAK1/2 inhibitor (Baricitinib 3 µg/g body weight) via intraperitoneal injection 3 days per week for 7 weeks. All groups were monitored during 7 weeks of treatment. Heterozygous littermates (db/m; n=10) were used as non-diabetic, non-obese control group.
Mice were housed in ventilated cages (2-4 mice per cage) with usual bedding material and environmental enrichment in a conventional temperature-controlled room (20-22°C) with 12 h light/dark cycle and free access to water and food. Blood glucose (glucometer; NovaPro, Menarini Diagnostics) and body weight levels were monitored once weekly during the follow-up period. […]
At the end of the studies, serum levels of glucose, triglycerides (TG), total cholesterol, high-density lipoprotein cholesterol (HDL), low-density lipoprotein cholesterol (LDL), alanine aminotransferase (ALT or GPT), aspartate aminotransferase (AST), alkaline phosphatase (ALP) and albumin were determined by automated procedures (Roche Cobas autoanalyzer). […]

[1] = tested on: mouse hepatocyte cell line; test: In vitro NAFLD model: hepatocytes exposed to palmitic acid (Oil red O staining, real-time PCR); type: cell-based; settings: induced by palmitic acid 400 µM, 6 hours
Description: Immortalized mouse hepatocyte cell line (kindly provided by Dr. Valverde, IIBm Alberto Sols, Madrid) were cultured in Dulbecco's Modified Eagle Medium (DMEM; D6546, Sigma-Aldrich) containing 10% FBS, 100 U/mL penicillin, 100 µg/mL streptomycin and 2 mM L-glutamine (Sigma-Aldrich) and used between 2nd-8th passages. Cells were incubated for 24 hours in medium with 0.5% FBS, pre-treated for 90 min with optimal doses of peptides (59 µM S1 and 25 µM liPS5) and then stimulated for additional 2-16 h with palmitic acid (P-0500, Sigma-Aldrich; stock solution diluted in fatty acid-free BSA to 5 mM) at a final concentration of 400 µM. Cell viability was confirmed by the 3-(4,5-dimethylthiazol-2-yl)-2,5-diphenyltetrazolium bromide tetrazolium (MTT) assay. Lipid accumulation in hepatocytes was determined by Oil red O staining.
(§1) Total RNA from mouse liver and hepatocytes was extracted using TRI Reagent (Molecular Research Center). Complementary DNA was produced via reverse transcription using High Capacity cDNA Reverse Transcription Kit (Applied Biosystems). The gene expression of mouse genes was determined in duplicate by quantitative real-time PCR using predesigned TaqMan gene expression assays (Applied Biosystems) or Premix ExTaq (Takara). The results for each sample were normalized to the 18S rRNA housekeeping expression, and data expressed as fold increases versus chow diet (in vivo studies) or basal conditions (in vitro studies).

[2] = tested on: ApoE-/- mice fed with HFD; test: NAFLD induced by high-fat diet (HFD) in ApoE-/- mice; type: in vivo; settings: 8 weeks of treatment
Description: In the second model, apolipoprotein E deficient mice (ApoE-/-, males, 10-12 weeks old) were administered high-fat diet (HFD, TD.88137, Envigo) for 8 weeks and treated with vehicle (n=8) or SOCS1-derived peptides (S1, n=6; liPS5, n=6; cPS5, n=6; cPS5Nal, n=6) at the dose of 4µg/g (in 200 µL) via intraperitoneal injection 3 days per week. A group of ApoE-/- mice under standard diet (Chow, n=6) was included as control.
Mice were housed in ventilated cages (2-4 mice per cage) with usual bedding material and environmental enrichment in a conventional temperature-controlled room (20-22°C) with 12 h light/dark cycle and free access to water and food. Blood glucose (glucometer; NovaPro, Menarini Diagnostics) and body weight levels were monitored once weekly during the follow-up period. At the end of the intervention studies, mice were anaesthetized (ketamine 100 mg/kg and xylazine 10 mg/kg) and euthanized, and blood and tissue samples were collected.
Hepatic lipids were extracted as previously described. Commercial colorimetric kits were used to measure concentrations of total cholesterol (STA-384, Cell Biolabs) and TG (11528, Biosystems), and values were normalized by tissue weight and mg of protein (BCA assay), respectively.
At the time of harvest, liver samples were fixed in 10% buffered formalin, processed for paraffin-embedding and cut (3-4 µm) or embedded in OCT compound and cryosectioned into 7 µm slices. Deparaffinized sections were stained with hematoxylin/eosin and Masson's trichrome to evaluate the histological NAFLD activity score (NAS) considering steatosis, lobular inflammation, ballooning and fibrosis, as previously described or were stained with picrosirious red to assess collagen deposition and fibrotic areas. Periodic Acid Schiff staining was performed for glycogen deposition assessment. Cryosections were stained with Oil red O/ hematoxylin to detect lipid accumulation.
For immunohistochemistry, liver sections were deparaffinized and […] through graded xylene and ethanol. After antigen retrieval (0.01 M citrate buffer pH 6 for 20 min) and blockade of endogenous peroxidase (3% H2O2 in methanol for 30 min) and nonspecific binding (8% host serum for 30 min), slides were incubated overnight at 4°C with primary antibodies against phosphorylated STAT1 (P-STAT1, Tyr701; Thermo Fisher Scientific Cat# 44-376G, RRID:AB_2533642), P-STAT3 (Ser727, Cell Signalling Technology Cat# 9134, RRID:AB_331589), P-nuclear factor erythroid 2-related factor 2 (NRF2, Ser40; Abcam Cat# ab76026, RRID:AB_1524049) and F4/80 monocytes/macrophages (Bio-Rad Cat# MCA497R, RRID:AB_323279). After rinsing in PBS, samples were incubated with respective secondary antibodies conjugated with either horseradish peroxidase or biotin (followed by avidin-biotin complex reagent). Immunoreactive cells were then visualized by the addition of peroxidase substrates (3, 3-diaminobenzidine or 3-amino-9-ethylcarbazole; DAKO) and counterstained with hematoxylin.
All the histological evaluations were conducted in a blinded fashion. Positive staining was quantified in at least 2 sections per mice using Image-Pro Plus software (Media Cybernetics) and expressed as percentage or number of positive cells per area.
as §1

[3] = 4µg/g intraperitoneal 3 days per week, vs vehicle

CCCCc1nc(Cl)c(CO)n1Cc1ccc(-c2ccccc2-c2nn[nH]n2)cc1 [Losartan]
hepatoprotective effect (BKS db/db mice): did not produce an hepatoprotective effect

DTC(Acm)RQT(Nal1)RKH (lactam bridge D1-K9) (DTC(Acm)RQT[1Nal]RKH; lactam 1-9) [cPS5Nal, cyclic PS5 with additional non-natural residue 1-naphthylalanine]
expression of inflammatory gene CCL2 (real-time PCR) [1]: downregulated
expression of inflammatory gene IL-6 (real-time PCR) [1]: downregulated
expression of scavenger receptor CD36 (real-time PCR) [1]: downregulated
gene expression of CCL5 in mouse liver [2]: effectively prevented
gene expression of CCl2 in mouse liver [2]: effectively prevented
gene expression of CXCL10 in mouse liver [2]: effectively prevented
gene expression of IL-6 in mouse liver [2]: effectively prevented
gene expression of TNFα in mouse liver [2]: effectively prevented
gene expression of scavenger receptor CD36 in mouse liver [2]: effectively prevented
ballooning (liver sections) [2, 3]: marked decrease
hepatic steatosis (liver sections, hematoxylin/eosin, Oil red O) [2, 3]: marked decrease
inflammation (liver sections, F4/80) [2, 3]: marked decrease
